Consider 7 compounds from publication PMC8292346, “Dysfunction of the key ferroptosis-surveilling systems hypersensitizes mice to tubular necrosis during acute kidney injury” (Nature Communications, 2021).

Data set [1] deals with HT1080 cells. The data set is described as follows: Ferroptosis inducers (FINs)/ferroptocide, 7-AAD/annexin V flow cytometry. The format is cell-based, human. For orientation: A flow cytometer gives signals particle by particle.
In data set [2] the test system is NIH3T3 cells. The description is as above. The settings on record: NIH3T3, 10 µM FIN56 24 h, alone (DMSO) or with Fer-1 1 µM, Nec-1s 30 µM, Nec-1f 30 µM. The format is cell-based, murine. On the procedure:
(§1) To induce necroptosis in a human cell line, HT29 cells were stimulated at the indicated time points with 20 ng/ml human TNFα (Biolegend), 1 μM SMAC-mimetics (Birinapant, Chemietek), and 20 μM zVAD-fmk (Selleckchem, herein referred to as zVAD). For the induction of necroptosis in NIH3T3 cells, cells were incubated with 20 ng/ml TNF-α and 20 μM zVAD for indicated time points. […] Cells were seeded in six-well plates or petri dishes. […] After indicated time points, cells were collected and prepared for flow cytometry, immunoblotting, and/or LDH release assays.
(§2) Cells were harvested and the pellets were washed twice in PBS and stained with 5 μl of 7-AAD (BD Biosciences) and 5 μl of annexin-V-FITC (BD Biosciences) added to 100 μl annexin-V binding buffer (BD Biosciences). After 15 min, cells were recorded on the LSRII with the FACS Diva 6.1.1 software (BD Biosciences) and subsequently analyzed with the FlowJo v10 software (Tree Star).

Data set [3] deals with HT1080 cells. The data set is described as follows: CellTiter-Glo luminescent cell viability assay (ATP), dose-response. Type of data set: cell-based, human. On the procedure:
Cells were plated in an opaque-walled 96-well plate and treatment with ferroptosis inducers and/or ferroptosis inhibitors was initiated 24 h later. […] Here, the reaction agent was directly added to the wells, mixed on an orbital shaker for 2 min, and then incubated at room temperature for 10 min. The luminescence was detected using a Promega GloMax® instrument.
(In general: ATP-based viability assays read luminescence as a measure of living cells.)

Data set [4] concerns Mouse cortical tubule cells (MCT). The data set is described as follows: FINs/ferroptocide, 7-AAD/annexin V flow cytometry. The format is cell-based. To be noted: MCT, alone (DMSO) or with Fer-1 1 µM, Nec-1s 30 µM, Nec-1f 30 µM. On the procedure: as §1, §2
For another data set, the system named is CD10-135 cells. The data set is described as follows: FINs/ferroptocide, LDH release assay. Type of data set: cell-based, human. To be noted: Nec-1f 30 µM. On the set-up: LDH release: unit not given here. In general terms: LDH leaks from cells whose membrane has failed.
Data set [5] has as its system primary murine tubular cells. The data set is described as follows: RSL3-induced LDH release of primary kidney tubular cells. The format is cell-based. To be noted: primary kidney tubular cells, RSL3 14 h, alone (DMSO) or with Fer-1 or Nec-1f 30 µM. The method, then:
The LDH release of cells or of freshly isolated kidney tubules was measured according to manufacturers’ instructions at indicated time points. In brief, an aliquot of the supernatant was taken and Lysis Solution was added for 45 min to induce maximal LDH release before another aliquot of the supernatant was taken. Subsequently, the supernatants were incubated with CytoTox 96® Reagent for 15 min protected from light at room temperature before adding Stop Solution. Absorbance was measured at 490 nm.
Generation, cell culture, and induction of cell death in primary murine tubular cells. Murine tubular cells were generated by outgrowth from isolated renal tubules (see above). Primary murine tubules were placed in six-well plates containing Dulbecco’s Modified Eagle Medium F-12 Nutrient Mixture without phenol red (DMEM/F12, Thermo Fisher), supplemented with 0.01 mg/ml recombinant human insulin, 5.5 μg/ml human transferrin, 0.005 μg/ml Na2SeO3 (ITS without linoleic acid, Sigma Aldrich), 50 nM hydrocortisone, 100 U/ml penicillin, and 100 μg/ml streptomycin (Pen/Strep, Thermo Fisher). After two days, the outgrown primary murine tubular cells were washed with PBS and a fresh medium was added. When the number of primary murine tubular cells reached approximately 50% confluence, the cells were removed from the six-well plates using Trypsin-EDTA (Thermo Fisher), washed with medium and a Ficoll Paque Plus (Sigma Aldrich) gradient was performed to remove any dead cells, and debris from the murine renal tubules. Cells were washed twice with PBS and seeded in six-well plates with medium. Once the number of grown cells reached approximately 50% confluence, they were washed with PBS and treated with type 2 FIN: RSL3 (also see Supplementary Table 2 for details). After 14 h, medium and cells were collected and prepared for LDH release assay. Images of the treated primary murine tubular cells were obtained using a 20×/0.30 PH1 objective on a Leica DMi1 microscope.

For data set [6] the following is noted: both, microsomes, 2 µM, pH 7.4.
Data set [7] deals with NIH3T3 cells. Kind of data set: Ferroptosis inducers (FINs)/ferroptocide, 7-AAD/annexin V flow cytometry. Type of data set: cell-based, murine. The settings on record: NIH3T3, 5 µM erastin 24 h, alone (DMSO) or with Fer-1 1 µM, Nec-1s 30 µM, Nec-1f 30 µM.
The nature of data set [8]: Stability in human plasma. To be noted: 1 µM, 37 °C. The format is in vitro ADME. The method, then: Plasma stability is defined as the percentage of parent compound remaining in plasma over the time. Here, incubations were carried out in 5 aliquots of 70 µl each (one for each time point), in duplicates. […] The percentage of the test compounds remaining after incubation in plasma and their half-lives (T1/2) was calculated.

“And” between values parts separate entries of the source, which are not always exact repeats. Identical values can stand only once. Like-named read-outs stand apart in the source and are kept apart here.

For `O=S(=O)(NC1CCCCC1)c1ccc2c(c1)C(=NO)c1cc(S(=O)(=O)NC3CCCCC3)ccc1-2` [FIN56], the “Induction of ferroptosis” value in the data set on HT1080 cells [1] (HT1080) is listed as “does not effectively drive ferroptosis”. The “double-negative events (7-AAD/annexin V)” value in the data set on HT1080 cells [1] (HT1080, 10 µM FIN56 24 h, alone (DMSO) or with Fer-1 1 µM, Nec-1s 30 µM, Nec-1f 30 µM) is 85.5% and 85.1% and 86%; with HT1080 cells [1] (HT1080, FIN56 10 µM, 24 h), 95% and 96% and 94%; in the data set with HT1080 cells [1] (HT1080, FIN56 10 µM, 48 h) it was 92% and 90% and 74%; in the data set on HT1080 cells [1] (HT1080, FIN56 20 µM, 24 h), 92% and 93%; in the data set with HT1080 cells [1] (HT1080, FIN56 20 µM, 48 h), 93% and 92% and 89% and 71%; with HT1080 cells [1] (HT1080, FIN56 50 µM, 24 h) it was 85% and 92% and 93%. Moreover, the “double-negative events (7-AAD/annexin V)” value was 83% and 87% and 78% and 65% in the data set with HT1080 cells [1] (HT1080, FIN56 50 µM, 48 h); 85% and 86% and 80% with HT1080 cells [1] (HT1080, FIN56 100 µM, 24 h); 87.6% and 95% and 90.3% in the data set with NIH3T3 cells [2]; 96.5% and 90.7% and 88.5% in data set [4] (10 µM FIN56 24 h). In addition, the “ATP luminescence (CellTiterGlo)” value was 100% in the data set with HT1080 cells [3] (HT1080, inducer at 0.01 µM); 100% in the data set with HT1080 cells [3] (HT1080, inducer at 0.1 µM); 100% in the data set with HT1080 cells [3] (HT1080, inducer at 0.5 µM); 100% with HT1080 cells [3] (HT1080, inducer at 1 µM). Further, the LDH release in the data set with CD10-135 cells (CD10-135, FIN56 alone (FIN) or with Fer-1, Nec-1s) was 81.45 and 58.7091 and 60.5407.

Turning to `CC1(CCO)CC2(CCC(C(C)(C)C)CC2)OO1` (stereo not drawn) [FINO2], the “ATP luminescence (CellTiterGlo)” value with HT1080 cells [3] (HT1080, inducer at 0.01 µM) was 100%; in the data set with HT1080 cells [3] (HT1080, inducer at 0.1 µM), 100%; in the data set with HT1080 cells [3] (HT1080, inducer at 0.5 µM), 100%; with HT1080 cells [3] (HT1080, inducer at 1 µM) it was 100% and 53.72%; in the data set with HT1080 cells [3] (HT1080, inducer at 50 µM), 0.7403% and 0.06%; in the data set on HT1080 cells [3] (HT1080, inducer at 100 µM) it was 0% and 0.26% and 0.2% and 0.08%. In addition, in the data set on HT1080 cells [3] (HT1080, inducer at 200 µM), the “ATP luminescence (CellTiterGlo)” value was 0% and 0.3058% and 0.04%. The LDH release with CD10-135 cells (CD10-135, FINO2 alone (FIN) or with Fer-1, Nec-1s) is 73.83 and 38.4304 and 67.2452.

As to `COC(=O)c1ccc([C@@H]2c3[nH]c4ccccc4c3C[C@@H](C(=O)OC)N2C(=O)CCl)cc1` [RSL3], the “double-negative events (7-AAD/annexin V)” value with HT1080 cells [1] (HT1080, 1.13 µM RSL3 6 h, alone (DMSO) or with Fer-1 1 µM, Nec-1s 30 µM, Nec-1f 30 µM) was 61% and 47.8% and 51.8% and 65.7%. Further, the “ATP luminescence (CellTiterGlo)” value was 100% with HT1080 cells [3] (HT1080, inducer at 0.01 µM); 100% in the data set with HT1080 cells [3] (HT1080, inducer at 0.1 µM); 100% with HT1080 cells [3] (HT1080, inducer at 0.113 µM); 30.56% and 28.07% and 28.8% in the data set on HT1080 cells [3] (HT1080, inducer at 0.5 µM); 18.36% and 19.43% and 14.93% in the data set with HT1080 cells [3] (HT1080, inducer at 1 µM); 55.71% and 77.56% and 64% in the data set with HT1080 cells [3] (HT1080, inducer at 1.13 µM). In addition, the “ATP luminescence (CellTiterGlo)” value in the data set with HT1080 cells [3] (HT1080, inducer at 5 µM) is 11.16% and 17.99% and 22.07%. Moreover, the LDH release in the data set on CD10-135 cells (CD10-135, RSL3 alone (FIN) or with Fer-1, Nec-1s) is 53.16 and 45.5353; in data set [5], 91.18% and 51.15% and 48.12% and 50.73% and 54.44%.

For the compound `O=C(O)Cc1ccccc1Nc1c(Cl)cccc1Cl` [diclofenac, reference compound], the “Human microsomal stability, parent compound remaining” value in [6] (0 h) is reported as 100%; in data set [6] (7 min), 62%; in data set [6] (0.25 h) it was 26%; in [6] (25 min), 6%; in data set [6] (40 min), 2%.

With `CCOc1ccccc1-n1c(C(C)N2CCN(C(=O)COc3ccc(Cl)cc3)CC2)nc2ccccc2c1=O` (stereo not drawn) [erastin], the “ATP luminescence (CellTiterGlo)” value with HT1080 cells [3] (HT1080, inducer at 0.01 µM) was 100%; with HT1080 cells [3] (HT1080, inducer at 0.1 µM) it was 100%; in the data set on HT1080 cells [3] (HT1080, inducer at 0.5 µM), 90.0281% and 100%; with HT1080 cells [3] (HT1080, inducer at 1 µM), 57.4401% and 100%; with HT1080 cells [3] (HT1080, inducer at 100 µM) it was 3.949%; in the data set on HT1080 cells [3] (HT1080, inducer at 200 µM), 12.3673% and 20.98%. Further, the “double-negative events (7-AAD/annexin V)” value in data set [4] (5 µM erastin 24 h) is 51.9% and 85.2% and 80.4% and 71%; with NIH3T3 cells [7], 10.4% and 3.36% and 6.36% and 2.66%. Further, the LDH release in the data set on CD10-135 cells (CD10-135, erastin alone (FIN) or with Fer-1, Nec-1s) is 92.68 and 85.398 and 91.0128.

On to `C[C@@H]1CC[C@@]23C[C@H](O)C(=O)[C@@]2(O)[C@]1(C)[C@H](OC(=O)CCl)C[C@@H](C1=CCn2c(=O)n(-c4ccccc4)c(=O)n2C1)[C@@H]3C` [ferroptocide], for which the “ATP luminescence (CellTiterGlo)” value in the data set with HT1080 cells [3] (HT1080, inducer at 0.01 µM) is 100%; in the data set with HT1080 cells [3] (HT1080, inducer at 0.1 µM), 100%; in the data set with HT1080 cells [3] (HT1080, inducer at 0.5 µM), 67.8646% and 100%; in the data set on HT1080 cells [3] (HT1080, inducer at 50 µM), -0.02481% and 0.12%; with HT1080 cells [3] (HT1080, inducer at 100 µM), 0% and 0.4% and -1.103% and 0.1%; in the data set with HT1080 cells [3] (HT1080, inducer at 200 µM), 0% and -0.7765% and 0.13%. In the data set on CD10-135 cells (CD10-135, ferroptocide alone (FIN) or with Fer-1, Nec-1s), the LDH release was 93.9 and 97.7396.

Take `CC(C)[N+](C)(CCOC(=O)C1c2ccccc2Oc2ccccc21)C(C)C` [propantheline, reference compound]: the “Human plasma stability, parent compound remaining” value was 100% in data set [8] (0 min); 65% in [8] (20 min); 31% in data set [8] (40 min); 16% in [8] (60 min); 2% in data set [8] (120 min).
